# Test results from the CheMixHub viscosity set.
# ± gives the uncertainty stated by the source.
# Test: xn = mol fraction of the nth substance listed
# Conditions: 101.33 kPa
structure (smiles),measurement,setting,value
CC(C)CCC[C@@H](C)[C@H]1CC[C@H]2[C@@H]3CC=C4C[C@@H](O)CC[C@]4(C)[C@H]3CC[C@]12C + ClC(Cl)(Cl)Cl,viscosity,"298 K, x1 = 0.0058",0.983 ± 0.012 mPa·s
same,viscosity,"298 K, x1 = 0.00978",1.04 ± 0.012 mPa·s
same,viscosity,"298 K, x1 = 0.0123",1.077 ± 0.013 mPa·s
same,viscosity,"298 K, x1 = 0.01552",1.136 ± 0.013 mPa·s
same,viscosity,"298 K, x1 = 0.01963",1.219 ± 0.014 mPa·s
same,viscosity,"298 K, x1 = 0.02491",1.328 ± 0.015 mPa·s
same,viscosity,"298 K, x1 = 0.03174",1.491 ± 0.017 mPa·s
same,viscosity,"303 K, x1 = 0.0058",0.912 ± 0.011 mPa·s
same,viscosity,"303 K, x1 = 0.00978",0.962 ± 0.011 mPa·s
same,viscosity,"303 K, x1 = 0.0123",0.996 ± 0.012 mPa·s
same,viscosity,"303 K, x1 = 0.01552",1.045 ± 0.012 mPa·s
same,viscosity,"303 K, x1 = 0.01963",1.12 ± 0.013 mPa·s
same,viscosity,"303 K, x1 = 0.02491",1.212 ± 0.014 mPa·s
same,viscosity,"303 K, x1 = 0.03174",1.355 ± 0.016 mPa·s
same,viscosity,"313 K, x1 = 0.0058",0.797 ± 0.01 mPa·s
same,viscosity,"313 K, x1 = 0.00978",0.836 ± 0.01 mPa·s
same,viscosity,"313 K, x1 = 0.0123",0.858 ± 0.01 mPa·s
same,viscosity,"313 K, x1 = 0.01552",0.898 ± 0.011 mPa·s
same,viscosity,"313 K, x1 = 0.01963",0.953 ± 0.011 mPa·s
same,viscosity,"313 K, x1 = 0.02491",1.024 ± 0.012 mPa·s
same,viscosity,"313 K, x1 = 0.03174",1.134 ± 0.013 mPa·s
same,viscosity,"323 K, x1 = 0.0058",0.705 ± 0.009 mPa·s
same,viscosity,"323 K, x1 = 0.00978",0.738 ± 0.009 mPa·s
same,viscosity,"323 K, x1 = 0.0123",0.753 ± 0.009 mPa·s
same,viscosity,"323 K, x1 = 0.01552",0.785 ± 0.01 mPa·s
same,viscosity,"323 K, x1 = 0.01963",0.826 ± 0.01 mPa·s
same,viscosity,"323 K, x1 = 0.02491",0.881 ± 0.011 mPa·s
same,viscosity,"323 K, x1 = 0.03174",0.96 ± 0.011 mPa·s
COCCOCCO + ClC(Cl)=C(Cl)Cl,viscosity,"298.15 K, x1 = 0.0072",0.852 ± 0.008 mPa·s
same,viscosity,"298.15 K, x1 = 0.0147",0.859 ± 0.009 mPa·s
same,viscosity,"298.15 K, x1 = 0.0261",0.869 ± 0.009 mPa·s
same,viscosity,"298.15 K, x1 = 0.0417",0.884 ± 0.009 mPa·s
same,viscosity,"298.15 K, x1 = 0.0604",0.911 ± 0.009 mPa·s
same,viscosity,"298.15 K, x1 = 0.0868",0.948 ± 0.009 mPa·s
same,viscosity,"298.15 K, x1 = 0.1038",0.975 ± 0.01 mPa·s
same,viscosity,"298.15 K, x1 = 0.1347",1.023 ± 0.01 mPa·s
same,viscosity,"298.15 K, x1 = 0.1769",1.092 ± 0.011 mPa·s
same,viscosity,"298.15 K, x1 = 0.2025",1.139 ± 0.011 mPa·s
same,viscosity,"298.15 K, x1 = 0.2433",1.216 ± 0.012 mPa·s
same,viscosity,"298.15 K, x1 = 0.2755",1.279 ± 0.013 mPa·s
same,viscosity,"298.15 K, x1 = 0.3041",1.34 ± 0.013 mPa·s
same,viscosity,"298.15 K, x1 = 0.3353",1.413 ± 0.014 mPa·s
same,viscosity,"298.15 K, x1 = 0.374",1.504 ± 0.015 mPa·s
same,viscosity,"298.15 K, x1 = 0.4127",1.596 ± 0.016 mPa·s
same,viscosity,"298.15 K, x1 = 0.4577",1.712 ± 0.017 mPa·s
same,viscosity,"298.15 K, x1 = 0.4877",1.796 ± 0.018 mPa·s
same,viscosity,"298.15 K, x1 = 0.5213",1.9 ± 0.019 mPa·s
same,viscosity,"298.15 K, x1 = 0.5632",2.03 ± 0.02 mPa·s
same,viscosity,"298.15 K, x1 = 0.5988",2.14 ± 0.021 mPa·s
same,viscosity,"298.15 K, x1 = 0.6333",2.253 ± 0.022 mPa·s
same,viscosity,"298.15 K, x1 = 0.6701",2.366 ± 0.024 mPa·s
same,viscosity,"298.15 K, x1 = 0.7061",2.48 ± 0.025 mPa·s
same,viscosity,"298.15 K, x1 = 0.7414",2.593 ± 0.026 mPa·s
same,viscosity,"298.15 K, x1 = 0.7892",2.754 ± 0.028 mPa·s
same,viscosity,"298.15 K, x1 = 0.8427",2.948 ± 0.03 mPa·s
same,viscosity,"298.15 K, x1 = 0.8844",3.109 ± 0.032 mPa·s
same,viscosity,"298.15 K, x1 = 0.9138",3.225 ± 0.033 mPa·s
same,viscosity,"298.15 K, x1 = 0.9381",3.323 ± 0.034 mPa·s
same,viscosity,"298.15 K, x1 = 0.9613",3.414 ± 0.035 mPa·s
same,viscosity,"298.15 K, x1 = 0.978",3.478 ± 0.036 mPa·s
same,viscosity,"298.15 K, x2 = 0.0115",3.521 ± 0.036 mPa·s
